Laboratory results as given in patent US20120029187A1, “HALOALKYLSULFONANILIDE DERIVATIVE” (Nissan Chemical Industries, Ltd., priority 2009, published 2012).

What was measured:
Format in all cases: in vivo
[1] = tested on: transplanted rice; assay: Test Example 1: preemergence treatment under submerged conditions, effect on crop; details: dose 2.52 g/a
In short: (§1)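 Flooded-paddy preemergence assay; EC diluted with water, surface-applied at weed seeding; doses g/a; rice transplanted at 2.5 leaves; 0–5 mortality score after 3 weeks.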

[2] = tested on: barnyardgrass; assay: Test Example 3: herbicidal effects in soil treatment; details: dose 3.2 g/a
In short: (§2)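 Seeds were sown in sterilized diluvial soil and covered with about 1.5 cm of soil. Compounds, formulated as emulsifiable concentrates and diluted with water, were sprayed evenly over the soil surface at set doses in g/a. Herbicidal effect was scored on a rating scale three weeks later.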

[3] = tested on: posumbu knotweed; assay: as above; details: dose 3.2 g/a
In short: as §2

[4] = tested on: velvetleaf; assay: as above; details: dose 3.2 g/a
In short: as §2

[5] = tested on: giant foxtail; assay: as above; details: dose 3.2 g/a
In short: as §2

[6] = tested on: common lambsquater; assay: as above; details: dose 3.2 g/a
In short: as §2

[7] = tested on: redroot pigweed; assay: as above; details: dose 3.2 g/a
In short: as §2

[8] = tested on: large crabgrass; assay: as above; details: dose 3.2 g/a
In short: as §2

[9] = tested on: common ragweed; assay: as above; details: dose 3.2 g/a
In short: as §2

[10] = tested on: water foxtail; assay: as above; details: dose 3.2 g/a
In short: as §2

[11] = tested on: Italian ryegrass; assay: as above; details: dose 3.2 g/a
In short: as §2

[12] = tested on: common chickweed; assay: as above; details: dose 3.2 g/a
In short: as §2

[13] = tested on: barnyardgrass; assay: Test Example 1: herbicidal effects in preemergence treatment under submerged conditions; details: dose 2.52 g/a
In short: as §1

[14] = tested on: ducksalad; assay: as above; details: dose 2.52 g/a
In short: as §1

[15] = tested on: bulrush; assay: as above; details: dose 2.52 g/a
In short: as §1

[16] = tested on: barnyardgrass; assay: Test Example 4: herbicidal effect in foliage treatment; details: dose 3.2 g/a, three weeks after application
In short: (§3)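 Foliar spray, post-emergence: 14-day-old greenhouse plants (25–30° C, diluvial soil) treated with water-diluted EC at set g/a doses; visual herbicidal score at 3 wk post-application.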

[17] = tested on: posumbu knotweed; assay: as above; details: dose 3.2 g/a, three weeks after application
In short: as §3

[18] = tested on: velvetleaf; assay: as above; details: dose 3.2 g/a, three weeks after application
In short: as §3

[19] = tested on: giant foxtail; assay: as above; details: dose 3.2 g/a, three weeks after application
In short: as §3

[20] = tested on: common lambsquater; assay: as above; details: dose 3.2 g/a, three weeks after application
In short: as §3

[21] = tested on: redroot pigweed; assay: as above; details: dose 3.2 g/a, three weeks after application
In short: as §3

[22] = tested on: large crabgrass; assay: as above; details: dose 3.2 g/a, three weeks after application
In short: as §3

[23] = tested on: common ragweed; assay: as above; details: dose 3.2 g/a, three weeks after application
In short: as §3

[24] = tested on: beadstraw; assay: as above; details: dose 3.2 g/a, three weeks after application
In short: as §3

[25] = tested on: water foxtail; assay: as above; details: dose 3.2 g/a, three weeks after application
In short: as §3

[26] = tested on: Italian ryegrass; assay: as above; details: dose 3.2 g/a, three weeks after application
In short: as §3

[27] = tested on: common chickweed; assay: as above; details: dose 3.2 g/a, three weeks after application
In short: as §3

[28] = tested on: barnyardgrass; assay: Test Example 2: herbicidal effects during the vegetation period under submerged conditions; details: treatment during the vegetation period under submerged conditions; dose 2.52 g/a
In short: (§4)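 Barnyardgrass, bulrush and ducksalad were co-sown in alluvial soil flooded to 4 cm and grown in a greenhouse at 25 to 30° C. At the 1- or 2-leaf stage, water-diluted emulsifiable concentrates went onto the water surface at set doses (g/a). Herbicidal effect was scored three weeks later on a graded scale.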

[29] = tested on: ducksalad; assay: as above; details: treatment during the vegetation period under submerged conditions; dose 2.52 g/a
In short: as §4

[30] = tested on: bulrush; assay: as above; details: treatment during the vegetation period under submerged conditions; dose 2.52 g/a
In short: as §4

**Q.** With `CC1(C(F)(F)F)CC(=O)N(Cc2ccccc2NS(=O)(=O)C(F)(F)F)CO1` (stereo not drawn) [II-46] as the molecule, how does the “a: transplanted rice, effect on crop (evaluation scale 0-5)” value [1] read?
**A.** 0 (mortality of less than 5% (almost ineffective))

**Q.** What about the “A: barnyardgrass, herbicidal effect (evaluation scale 0-5)” value [2] of the same molecule?
**A.** 5 (mortality of 90% or above (nearly complete death))

**Q.** And the “M: posumbu knotweed, herbicidal effect (evaluation scale 0-5)” value [3]?
**A.** 3 (mortality of at least 40% and less than 70%)

**Q.** And the “I: velvetleaf, herbicidal effect (evaluation scale 0-5)” value [4]?
**A.** 3 (mortality of at least 40% and less than 70%)

**Q.** What about the “E: giant foxtail, herbicidal effect (evaluation scale 0-5)” value [5] of the same molecule?
**A.** 5 (mortality of 90% or above (nearly complete death))

**Q.** And the “L: common lambsquater, herbicidal effect (evaluation scale 0-5)” value [6]?
**A.** 4 (mortality of at least 70% and less than 90%)

**Q.** And the “K: redroot pigweed, herbicidal effect (evaluation scale 0-5)” value [7]?
**A.** 0 (mortality of less than 5% (almost ineffective))

**Q.** What about the “D: large crabgrass, herbicidal effect (evaluation scale 0-5)” value [8] of the same molecule?
**A.** 5 (mortality of 90% or above (nearly complete death))

**Q.** What about the “J: common ragweed, herbicidal effect (evaluation scale 0-5)” value [9] of the same molecule?
**A.** 4 (mortality of at least 70% and less than 90%)

**Q.** And the “G: water foxtail, herbicidal effect (evaluation scale 0-5)” value [10]?
**A.** 5 (mortality of 90% or above (nearly complete death))

**Q.** And the “H: Italian ryegrass, herbicidal effect (evaluation scale 0-5)” value [11]?
**A.** 3 (mortality of at least 40% and less than 70%)

**Q.** And the “N: common chickweed, herbicidal effect (evaluation scale 0-5)” value [12]?
**A.** 4 (mortality of at least 70% and less than 90%)

**Q.** What about the “A: barnyardgrass, herbicidal effect (evaluation scale 0-5)” value [13] of the same molecule?
**A.** 4 (mortality of at least 70% and less than 90%)

**Q.** What about the “C: ducksalad, herbicidal effect (evaluation scale 0-5)” value [14] of the same molecule?
**A.** 5 (mortality of 90% or above (nearly complete death))

**Q.** And the “B: bulrush, herbicidal effect (evaluation scale 0-5)” value [15]?
**A.** 5 (mortality of 90% or above (nearly complete death))

**Q.** What about the “A: barnyardgrass, herbicidal effect” value [16] of the same molecule?
**A.** 4 (mortality of at least 70% and less than 90%)

**Q.** And the “M: posumbu knotweed, herbicidal effect” value [17]?
**A.** 2 (mortality of at least 20% and less than 40%)

**Q.** And the “I: velvetleaf, herbicidal effect” value [18]?
**A.** 1 (mortality of at least 5% and less than 20%)

**Q.** And the “E: giant foxtail, herbicidal effect” value [19]?
**A.** 4 (mortality of at least 70% and less than 90%)

**Q.** What about the “L: common lambsquater, herbicidal effect” value [20] of the same molecule?
**A.** 2 (mortality of at least 20% and less than 40%)

**Q.** And the “K: redroot pigweed, herbicidal effect” value [21]?
**A.** 0 (mortality of less than 5% (almost ineffective))

**Q.** And the “D: large crabgrass, herbicidal effect” value [22]?
**A.** 4 (mortality of at least 70% and less than 90%)

**Q.** And the “J: common ragweed, herbicidal effect” value [23]?
**A.** 3 (mortality of at least 40% and less than 70%)

**Q.** And the “O: beadstraw, herbicidal effect” value [24]?
**A.** 4 (mortality of at least 70% and less than 90%)

**Q.** What about the “G: water foxtail, herbicidal effect” value [25] of the same molecule?
**A.** 2 (mortality of at least 20% and less than 40%)

**Q.** And the “H: Italian ryegrass, herbicidal effect” value [26]?
**A.** 0 (mortality of less than 5% (almost ineffective))

**Q.** And the “N: common chickweed, herbicidal effect” value [27]?
**A.** 4 (mortality of at least 70% and less than 90%)

**Q.** What about the “A: barnyardgrass, herbicidal effect (evaluation scale 0-5)” value [28] of the same molecule?
**A.** 4 (mortality of at least 70% and less than 90%)

**Q.** And the “C: ducksalad, herbicidal effect (evaluation scale 0-5)” value [29]?
**A.** 5 (mortality of 90% or above (nearly complete death))

**Q.** What about the “B: bulrush, herbicidal effect (evaluation scale 0-5)” value [30] of the same molecule?
**A.** 5 (mortality of 90% or above (nearly complete death))
